The results in this text go back to ChEMBL document CHEMBL3871298, “Virtual screening and biophysical studies lead to HSP90 inhibitors” (Bioorg Med Chem Lett, 2017).

Data set [1] can be described thus: Aqueous solubility of the compound at >100 uM. It counts as physicochemical. As to conditions: buffer.
Data set [2] has as its target T1, Heat shock protein HSP 90-alpha (Homo sapiens, UniProt P07900). Nature of the data set: Binding affinity to human HSP90alpha isoform 1 N-terminal ATP binding domain (9 to 236 residues) expressed in Escherichia coli BL21(DE3) assessed as melting temperature at 100 uM by SYPRO orange dye-based thermal shift assay.
The subject of a further data set is Saccharomyces cerevisiae. Nature of the data set: Binding affinity to yeast HSP90 N-terminal ATP binding domain by high-throughput virtual screening method.
Data set [3] deals with T1, Heat shock protein HSP 90-alpha. Nature of the data set: Binding affinity to 15N-labeled human HSP90alpha isoform 1 N-terminal ATP binding domain (9 to 236 residues) expressed in Escherichia coli BL21(DE3) by 1H-15N HSQC NMR spectroscopy.
Data set [4] has the same target. Nature of the data set: Binding affinity to 15N-labeled human HSP90alpha isoform 1 N-terminal ATP binding domain (9 to 236 residues) expressed in Escherichia coli BL21(DE3) assessed as reduction in protein signal intensity at 625 uM by 1H-15N HSQC NMR spectroscopy.

Calls of active or inactive are those of the source. No cut-off for these calls is given here.

`O=C(O)COc1cc(OCC(=O)O)c2c(-c3ccccc3)cc(=O)oc2c1`: the solubility entry in data set [1] was “Soluble”. Further, the Tm (usually the temperature at the midpoint of the melting transition) in data set [2] was 32.4 °C. Moreover, the outcome with Saccharomyces cerevisiae was Active.
Regarding `CCc1cc(-c2n[nH]c(C)c2-c2ccc3c(c2)OCCCO3)c(O)cc1OCC(=O)O`, the solubility entry in data set [1] is recorded as “Soluble”. In data set [2], the Tm was 32.2 °C. Besides, in the data set with Saccharomyces cerevisiae, the outcome was Active.
`Nc1ncnc2c1ncn2[C@@H]1O[C@H](COP(=O)(O)OP(=O)(O)O)[C@@H](O)[C@H]1O`: in data set [2], the Tm amounted to 36.7 °C.
Consider `N=c1oc2cc(O)ccc2cc1C(=O)NCc1ccccc1`, for which the solubility result in data set [1] is given as “Soluble”. The Tm in data set [2] was 35.5 °C. Further, the outcome with Saccharomyces cerevisiae was Active.
`CC(=O)Nc1ccc(N[C@@H]2O[C@H](CO)[C@@H](O)[C@H]2O)cc1`: the solubility result in data set [1] is on record as “Soluble”. Also, the Tm in data set [2] amounted to 31.8 °C. In the data set on Saccharomyces cerevisiae, the result was Active.
Consider `Cc1oc2cc(OCC(=O)NCO)ccc2c(=O)c1-c1ccc2c(c1)OCCCO2`, for which, in data set [1], the solubility result is on record as “Soluble”. The Tm in data set [2] was found to be 32.4 °C. In the data set with Saccharomyces cerevisiae, the outcome was Active.
For the molecule `CCCc1cc(C(=O)Cc2ccc(C(=O)OCC)o2)c(O)cc1O`, in data set [1], the solubility result was “Soluble”. Further, the Tm in data set [2] worked out at 40.3 °C. The result in the data set with Saccharomyces cerevisiae was Active. For the same molecule, the Kd (in general, the constant that tells how readily two partners part at equilibrium) in data set [3] was 2 µM.
Take `CCCc1cc(C(=O)Cc2ccc3c(c2)OCO3)c(O)cc1O`: the solubility result in data set [1] is reported as “Soluble”. Besides, in data set [2], the Tm was 41.7 °C. In the data set on Saccharomyces cerevisiae, the result was Active. Besides, in data set [3], the Kd was greater than 500 µM.
For `O=c1c2[nH]c3ccccc3c2ncn1CCc1c[nH]cn1`, the solubility entry in data set [1] is “Soluble”. In data set [2], the Tm amounted to 32.3 °C. For the same molecule, the result in the data set on Saccharomyces cerevisiae was Active.
For `O=c1c2[nH]c3ccccc3c2ncn1CCc1ccc(O)cc1`, in data set [1], the solubility result is “Insoluble”. Besides, the Tm in data set [2] is 30.8 °C. Further, the outcome in the data set on Saccharomyces cerevisiae was Active.
As to `Cc1cc(=O)oc2cc(OCc3ccc(C(=O)O)o3)ccc12`, the solubility result in data set [1] is reported as “Soluble”. For the same molecule, in data set [2], the Tm came out at 32.4 °C. Moreover, the result in the data set on Saccharomyces cerevisiae was Active.
On to `CCOC(=O)c1cc2n(c1N)-c1ccccc1C2=O`, for which the solubility result in data set [1] is given as “Soluble”. In data set [2], the Tm was 32.4 °C. The result in the data set on Saccharomyces cerevisiae was Active.
As for `CC(NCc1c(O)ccc2c(-c3ccccc3)cc(=O)oc12)C(=O)O` (configuration not stated), the solubility entry in data set [1] is recorded as “Soluble”. Moreover, the Tm in data set [2] is 32.5 °C. For the same molecule, the result in the data set on Saccharomyces cerevisiae was Active.
In the same order, the values of `O=C(O)C1Cc2c([nH]c3ccccc23)C(c2ccc(O)c(O)c2)N1` (configuration not stated) are “Soluble”, 31.3 °C and “Active”.
For `CCc1cc(C(=O)Cc2ccc(OC)cc2)c(O)cc1O`, the solubility entry in data set [1] is “Soluble”. Further, in data set [2], the Tm was 42.1 °C. Further, the outcome in the data set with Saccharomyces cerevisiae was Active. The molecule also showed a Kd in data set [3] of 20 µM.
Turning to `O=C(Cc1ccc2c(c1)OCCCO2)c1ccc(O)c(O)c1O`, in data set [1], the solubility entry is “Soluble”. The Tm in data set [2] came out at 37.5 °C. Also, in the data set on Saccharomyces cerevisiae, the result was Active. Also, the Kd in data set [3] stood at 370 µM.
On to `Cc1c(OCc2ccc(C(=O)O)o2)ccc2c3c(c(=O)oc12)CCC3`, for which, in data set [1], the solubility result is “Soluble”. The outcome (in data set [4]; with Saccharomyces cerevisiae) was Active. The Tm in data set [2] was 32.7 °C.
Take `COc1ccc2[nH]cc(C(=O)CN3C[C@@H]4C[C@@H](C3)c3cccc(=O)n3C4)c2c1`: the solubility entry in data set [1] is given as “Soluble”. Moreover, the Tm in data set [2] turned out to be 33.1 °C. Moreover, the outcome in the data set on Saccharomyces cerevisiae was Active.
With `O=c1c2[nH]c3ccccc3c2ncn1CCc1ccc(O)c(O)c1`, the solubility result in data set [1] is given as “Soluble”. Further, the Tm in data set [2] was found to be 36.5 °C. The outcome with Saccharomyces cerevisiae was Active.
Take `O=C(Cc1c(O)c2ccccc2[nH]c1=O)NCCO`: the solubility entry in data set [1] is listed as “Soluble”. Further, the Tm in data set [2] came out at 32.8 °C. In the data set with Saccharomyces cerevisiae, the outcome was Active.
As for `CCOC(=O)c1ccc(-c2c(-c3cc(CC)c(O)cc3O)n[nH]c2C)o1`, the solubility result in data set [1] was “Soluble”. The Tm in data set [2] amounted to 49.8 °C. The result with Saccharomyces cerevisiae was Active. Further, the Kd in data set [3] amounted to 3 µM.
